Assay results as given in publication PMC3914206.

How the values were obtained:
panel of 442 kinases [1] = molecular target: T1, panel of 442 kinases (Homo sapiens, UniProt P51813); format: binding; design: KINOMEscan: ABL1(F317L)-phosphorylated / KINOMEscan: ABL1(H396P)-nonphosphorylated / KINOMEscan: ABL1(H396P)-phosphorylated / KINOMEscan: ABL1(M351T)-phosphorylated / KINOMEscan: ABL1(T315I)-phosphorylated / KINOMEscan: ABL1-nonphosphorylated / KINOMEscan: ABL1-phosphorylated / KINOMEscan: ACVR2A / KINOMEscan: ACVR2B / KINOMEscan: ADCK3 / KINOMEscan: ADCK4 / KINOMEscan: AKT1 / KINOMEscan: AKT3 / KINOMEscan: ALK / KINOMEscan: ARK5 / KINOMEscan: AURKA / KINOMEscan: AURKC / KINOMEscan: BIKE / KINOMEscan: BMPR1A / KINOMEscan: BMPR1B / KINOMEscan: BMX / KINOMEscan: BRK / KINOMEscan: BRSK1 / KINOMEscan: BRSK2 / KINOMEscan: CAMK1 / KINOMEscan: CAMK1D / KINOMEscan: CAMK1G / KINOMEscan: CAMK2A / KINOMEscan: CAMK2B / KINOMEscan: AAK1 / KINOMEscan: CAMK2D / KINOMEscan: CAMK2G / KINOMEscan: ABL1(F317I)-nonphosphorylated / KINOMEscan: ABL1(F317I)-phosphorylated / KINOMEscan: ABL1(F317L)-nonphosphorylated: unit: % Ctrl; conditions: Compound Concentration 10 µM
T1 construct: purchased KINOMEscan
T1 sequence (P51813 1-675): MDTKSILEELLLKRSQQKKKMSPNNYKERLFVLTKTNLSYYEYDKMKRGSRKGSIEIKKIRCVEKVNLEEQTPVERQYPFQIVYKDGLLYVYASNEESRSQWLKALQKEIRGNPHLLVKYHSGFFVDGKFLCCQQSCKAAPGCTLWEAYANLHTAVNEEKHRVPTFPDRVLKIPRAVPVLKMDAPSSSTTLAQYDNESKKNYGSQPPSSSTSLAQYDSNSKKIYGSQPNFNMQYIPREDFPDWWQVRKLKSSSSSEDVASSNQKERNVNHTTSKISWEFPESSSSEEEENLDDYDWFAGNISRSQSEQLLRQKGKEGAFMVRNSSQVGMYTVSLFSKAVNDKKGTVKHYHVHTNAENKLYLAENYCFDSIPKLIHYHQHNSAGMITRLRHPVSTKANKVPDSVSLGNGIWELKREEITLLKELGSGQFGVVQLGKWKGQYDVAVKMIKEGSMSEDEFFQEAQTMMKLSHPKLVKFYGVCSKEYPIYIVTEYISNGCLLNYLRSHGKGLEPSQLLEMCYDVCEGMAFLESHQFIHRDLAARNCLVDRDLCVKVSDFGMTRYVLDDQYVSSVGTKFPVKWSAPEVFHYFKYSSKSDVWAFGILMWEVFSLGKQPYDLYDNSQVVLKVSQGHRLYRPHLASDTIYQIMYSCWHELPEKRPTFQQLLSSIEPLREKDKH
Description: (§1) We assessed the selectivity of members of this scaffold using the KINOMEscan methodology across a near comprehensive panel of 442 kinases [[18,27]].

panel of 442 kinases [2] = molecular target: T2, panel of 442 kinases (Homo sapiens, UniProt P78362); format: binding; design: KINOMEscan: ABL1(F317L)-phosphorylated / KINOMEscan: ABL1(H396P)-nonphosphorylated / KINOMEscan: ABL1(H396P)-phosphorylated / KINOMEscan: ABL1(M351T)-phosphorylated / KINOMEscan: ABL1(T315I)-phosphorylated / KINOMEscan: ABL1-nonphosphorylated / KINOMEscan: ABL1-phosphorylated / KINOMEscan: ACVR2A / KINOMEscan: ACVR2B / KINOMEscan: ADCK3 / KINOMEscan: ADCK4 / KINOMEscan: AKT1 / KINOMEscan: AKT3 / KINOMEscan: ALK / KINOMEscan: ARK5 / KINOMEscan: AURKA / KINOMEscan: AURKC / KINOMEscan: BIKE / KINOMEscan: BMPR1A / KINOMEscan: BMPR1B / KINOMEscan: BMX / KINOMEscan: BRK / KINOMEscan: BRSK1 / KINOMEscan: BRSK2 / KINOMEscan: CAMK1 / KINOMEscan: CAMK1D / KINOMEscan: CAMK1G / KINOMEscan: CAMK2A / KINOMEscan: CAMK2B / KINOMEscan: AAK1 / KINOMEscan: CAMK2D / KINOMEscan: CAMK2G / KINOMEscan: ABL1(F317I)-nonphosphorylated / KINOMEscan: ABL1(F317I)-phosphorylated / KINOMEscan: ABL1(F317L)-nonphosphorylated: unit: % Ctrl; conditions: kinase SRPK2; compound concentration 10 µM
T2 construct: purchased KINOMEscan
T2 sequence (P78362 whole entry): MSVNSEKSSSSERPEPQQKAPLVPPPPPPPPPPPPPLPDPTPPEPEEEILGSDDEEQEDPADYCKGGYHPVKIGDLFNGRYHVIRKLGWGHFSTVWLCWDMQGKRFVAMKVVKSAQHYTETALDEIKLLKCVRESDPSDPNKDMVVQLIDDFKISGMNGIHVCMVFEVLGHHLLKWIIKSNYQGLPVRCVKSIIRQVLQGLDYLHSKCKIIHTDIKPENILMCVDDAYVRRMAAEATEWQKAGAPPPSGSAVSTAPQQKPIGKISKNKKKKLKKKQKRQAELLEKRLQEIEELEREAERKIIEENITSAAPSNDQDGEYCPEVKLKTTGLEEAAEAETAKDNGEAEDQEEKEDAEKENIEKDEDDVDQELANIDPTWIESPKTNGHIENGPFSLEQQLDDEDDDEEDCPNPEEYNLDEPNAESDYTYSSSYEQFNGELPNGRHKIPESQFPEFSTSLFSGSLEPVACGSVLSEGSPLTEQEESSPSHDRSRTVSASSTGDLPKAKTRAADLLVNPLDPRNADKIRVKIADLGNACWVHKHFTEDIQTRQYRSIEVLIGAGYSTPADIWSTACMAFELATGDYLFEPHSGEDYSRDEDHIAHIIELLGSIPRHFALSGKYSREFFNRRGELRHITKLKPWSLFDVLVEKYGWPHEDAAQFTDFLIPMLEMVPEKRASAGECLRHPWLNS
Description: as §1

Compound | KINOMEscan: BMX (panel of 442 kinases [1]) | % Ctrl, SRPK2 (panel of 442 kinases [2])
COc1cc(C(=O)N2CCC(N3CCN(C)CC3)CC2)ccc1Nc1ncc2c(n1)N(C)c1ccccc1C(=O)N2C [15 (LRRK2-IN-1)] | 87 | 100 % Ctrl
COc1cc(C(=O)N2CCC(N3CCN(C)CC3)CC2)ccc1Nc1ncc2c(n1)N1CCc3cccc(c31)C(=O)N2C [Compound 24] | 71 | 98 % Ctrl
COc1cc(C(=O)N2CCC(N3CCN(C)CC3)CC2)ccc1Nc1ncc2c(n1)N(C1CCCC1)c1ccccc1C(=O)N2C [Compound 25, 11-cyclopentyl-2-((2-methoxy-4-(4-(4-methylpiperazin-1-yl)piperidine-1-carbonyl)phenyl)amino)-5-methyl-5H-benzo[e]pyrimido[5,4-b][1,4]diazepin-6(11H)-one] | 91 | 86 % Ctrl
CCOc1cc(C(=O)N2CCC(N3CCN(C)CC3)CC2)ccc1Nc1ncc2c(n1)N(C1CCCC1)c1ccccc1C(=O)N2C [Compound 26] | 100 | 100 % Ctrl
